According to BigSolDB 2.1:

C=C[C@]1(C)C[C@@H](OC(=O)CSCCN(CC)CC)[C@]2(C)[C@H](C)CC[C@]3(CCC(=O)[C@H]32)[C@@H](C)[C@@H]1O.O=C(O)/C=C/C(=O)O
solubility (mole fraction)
Settings | 283.15 K | 293.15 K | 303.15 K | 313.15 K | 323.15 K
in MIBK | 0.000867 | 0.00108 | 0.00134 | 0.00191 | 0.00254
in acetone | 0.00132 | 0.00257 | 0.00377 | 0.00574 | 0.00861
in acetonitrile | 8.33e-05 | 0.00016 | 0.000235 | 0.000495 | 0.000993
in ethyl acetate | 0.000525 | 0.000719 | 0.00102 | 0.00147 | 0.00215
in isobutyl acetate | 0.000437 | 0.000574 | 0.000744 | 0.00103 | 0.00143
in isopropanol | 0.00103 | 0.00124 | 0.00173 | 0.00288 | 0.00466
in isopropyl acetate | 0.00044 | 0.00061 | 0.000823 | 0.00118 | 0.00163
in methyl acetate | 0.000372 | 0.000443 | 0.000624 | 0.000964 | 0.00142
in n-butanol | 0.00276 | 0.00458 | 0.00596 | 0.00962 | 0.0173
in n-butyl acetate | 0.000517 | 0.000712 | 0.001 | 0.0013 | 0.00168
in toluene | 5.73e-05 | 9.62e-05 | 0.000174 | 0.000274 | 0.000537
